# Test results as given in patent US9464084B2, “P2X7 modulators” (Janssen Pharmaceutica NV, priority 2013, dated 2016).
# Target: P2X7 (Homo sapiens (Human), UniProt Q99572)
# Experiment: P2X7 antagonism in human PBMCs (LPS + Bz-ATP induced IL-1β release, ELISA);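 note: PBMCs from donor human blood, with a further 1.5 h incubation of the cells in the assay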
# Type: cell-based
# Details: compound 1 μM, LPS 30 ng/ml, Bz-ATP 0.5 mM
# Chain of P2X7 (Q99572 whole entry): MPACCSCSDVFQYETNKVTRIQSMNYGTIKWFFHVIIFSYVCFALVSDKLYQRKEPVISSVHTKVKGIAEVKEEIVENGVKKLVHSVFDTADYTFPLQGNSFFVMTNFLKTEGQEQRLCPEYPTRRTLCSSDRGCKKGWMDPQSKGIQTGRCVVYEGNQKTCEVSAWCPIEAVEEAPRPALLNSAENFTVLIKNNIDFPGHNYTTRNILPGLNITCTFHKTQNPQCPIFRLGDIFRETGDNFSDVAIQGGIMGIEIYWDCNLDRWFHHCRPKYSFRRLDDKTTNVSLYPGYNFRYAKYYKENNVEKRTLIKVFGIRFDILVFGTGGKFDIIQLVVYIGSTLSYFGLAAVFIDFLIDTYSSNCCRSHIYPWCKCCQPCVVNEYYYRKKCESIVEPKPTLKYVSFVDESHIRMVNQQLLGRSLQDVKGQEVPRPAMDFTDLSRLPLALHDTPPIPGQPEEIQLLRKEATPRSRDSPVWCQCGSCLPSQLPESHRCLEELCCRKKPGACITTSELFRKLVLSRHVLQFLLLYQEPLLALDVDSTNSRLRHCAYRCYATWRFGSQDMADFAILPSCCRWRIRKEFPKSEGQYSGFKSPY
row,SMILES,PBMC 1 μM (% control)
1,"O=C(c1cccc(C(F)(F)F)c1Cl)N1CCc2c(nnn2-c2cnccn2)C1 [Example 91, 5-{[2-Chloro-3-(trifluoromethyl)phenyl]carbonyl}-1-pyrazin-2-yl-4,5,6,7-tetrahydro-1H-[1,2,3]triazolo[4,5-c]pyridine]",6.1 % control
2,"O=C(c1cccc(C(F)(F)F)c1Cl)N1CCc2nc[nH]c2C1 [Example 48, 5-{[2-Chloro-3-(trifluoromethyl)phenyl]carbonyl}-4,5,6,7-tetrahydro-3H-imidazo[4,5-c]pyridine]",90.1 % control
3,"O=C(c1cccc2c1OC(F)(F)O2)N1CCc2c(ncn2-c2ccccc2)C1 [Example 50, 5-[(2,2-Difluoro-1,3-benzodioxol-4-yl)carbonyl]-1-phenyl-4,5,6,7-tetrahydro-1H-imidazo[4,5-c]pyridine]",96.0 % control
4,"CC1c2ncn(-c3ccccn3)c2CCN1C(=O)c1cccc(C(F)(F)F)c1Cl (stereo not shown) [Example 17, (2-Chloro-3-(trifluoromethyl)phenyl)(4-methyl-1-(pyridin-2-yl)-6,7-dihydro-1H-imidazo[4,5-c]pyridin-5(4H)-yl)methanone]",6.5 % control
5,"O=C(c1c(F)cccc1Cl)N1CCc2c(-c3ccccc3)n[nH]c2C1 [Example 325, (2-chloro-6-fluorophenyl)(3-phenyl-4,5-dihydro-1H-pyrazolo[3,4-c]pyridin-6(7H)-yl)methanone]",99.7 % control
6,"O=C(c1c(Cl)cccc1Cl)N1CCc2c(-c3ccccc3)n[nH]c2C1 [Example 324, (2,6-dichlorophenyl)(3-phenyl-4,5-dihydro-1H-pyrazolo[3,4-c]pyridin-6(7H)-yl)methanone]",100.4 % control
7,"O=C(c1cccc(C(F)(F)F)c1Cl)N1C=Cc2c(ncn2-c2ccccc2)C1 [Example 49, 5-{[2-Chloro-3-(trifluoromethyl)phenyl]carbonyl}-1-phenyl-4,5-dihydro-1H-imidazo[4,5-c]pyridine]",93.5 % control

# Same assay, conditions: compound 10 μM, LPS 30 ng/ml, Bz-ATP 0.5 mM
row,SMILES,PBMC 10 μM (% control)
1,"C[C@@H]1Cc2c(nnn2-c2ccn[nH]2)[C@@H](C)N1C(=O)c1cccc(C(F)(F)F)c1Cl [Example 296, (2-chloro-3-(trifluoromethyl)phenyl)((4R,6R)-4,6-dimethyl-1-(1H-pyrazol-5-yl)-6,7-dihydro-1H-[1,2,3]triazolo[4,5-c]pyridin-5(4H)-yl)methanone]",3.6 % control
2,"C[C@@H]1c2nnn(-c3cnccn3)c2CCN1C(=O)c1ccc(F)c(Cl)c1Cl (single isomer, unassigned) [Example 143, (R*)-(2,3-Dichloro-4-fluorophenyl)(4-methyl-1-(pyrazin-2-yl)-6,7-dihydro-1H-[1,2,3]triazolo[4,5-c]pyridin-5(4H)-yl)methanone]",58.0 % control
3,"C[C@H]1c2nnn(-c3ncccn3)c2CCN1C(=O)c1cccc(C(F)(F)F)c1Cl (single isomer, unassigned) [Example 87, (4S*)-5-{[2-Chloro-3-(trifluoromethyl)phenyl]carbonyl}-4-methyl-1-pyrimidin-2-yl-4,5,6,7-tetrahydro-1H-[1,2,3]triazolo[4,5-c]pyridine]",21.7 % control
4,"C[C@@H]1c2nnn(-c3ncc(F)cn3)c2CCN1C(=O)c1cccc(C(F)(F)F)c1F (single isomer, unassigned) [Example 190, (R*)-(2-fluoro-3-(trifluoromethyl)phenyl)(1-(5-fluoropyrimidin-2-yl)-4-methyl-6,7-dihydro-1H-[1,2,3]triazolo[4,5-c]pyridin-5(4H)-yl)methanone]",7.1 % control
5,"C[C@@H]1Cc2c(nnn2-c2ncc(F)cn2)CN1C(=O)c1cccc(C(F)(F)F)c1Cl (single isomer, unassigned) [Example 201, (6R*)-5-{[2-Chloro-3-(trifluoromethyl)phenyl]carbonyl}-1-(5-fluoropyrimidin-2-yl)-6-methyl-4,5,6,7-tetrahydro-1H-[1,2,3]triazolo[4,5-c]pyridine]",20.4 % control
6,"CC1Cc2c(nnn2-c2ncc(F)cn2)CN1C(=O)c1cccc(C(F)(F)F)c1Cl (stereo not shown) [Example 200, 5-{[2-Chloro-3-(trifluoromethyl)phenyl]carbonyl}-1-(5-fluoropyrimidin-2-yl)-6-methyl-4,5,6,7-tetrahydro-1H-[1,2,3]triazolo[4,5-c]pyridine]",3.2 % control
7,"Cc1cccc(-n2nnc3c2CCN(C(=O)c2cccc(Cl)c2Cl)C3C)n1 (stereo not shown) [Example 233, (2,3-dichlorophenyl)(4-methyl-1-(6-methylpyridin-2-yl)-6,7-dihydro-1H-[1,2,3]triazolo[4,5-c]pyridin-5(4H)-yl)methanone]",−0.1 % control
8,"C[C@H]1c2nnn(-c3ncc(F)cn3)c2CCN1C(=O)c1cccc(C(F)(F)F)c1F (single isomer, unassigned) [Example 178, (S*)-(2-fluoro-3-(trifluoromethyl)phenyl)(1-(5-fluoropyrimidin-2-yl)-4-methyl-6,7-dihydro-1H-[1,2,3]triazolo[4,5-c]pyridin-5(4H)-yl)methanone]",−4.7 % control
9,"C[C@@H]1Cc2c(nnn2-c2ccc(F)cc2)[C@H](C)N1C(=O)c1cccc(C(F)(F)F)c1Cl [Example 286, (2-chloro-3-(trifluoromethyl)phenyl)((4S,6R)-1-(4-fluorophenyl)-4,6-dimethyl-6,7-dihydro-1H-[1,2,3]triazolo[4,5-c]pyridin-5(4H)-yl)methanone]",5.8 % control
10,"C[C@H]1Cc2c(nnn2-c2ncc(F)cn2)CN1C(=O)c1cccc(C(F)(F)F)c1Cl (single isomer, unassigned) [Example 202, (6S*)-5-{[2-Chloro-3-(trifluoromethyl)phenyl]carbonyl}-1-(5-fluoropyrimidin-2-yl)-6-methyl-4,5,6,7-tetrahydro-1H-[1,2,3]triazolo[4,5-c]pyridine]",24.1 % control
11,"CC1Cc2c(nnn2-c2cc[nH]n2)CN1C(=O)c1cccc(C(F)(F)F)c1Cl (stereo not shown) [Example 210, (2-chloro-3-(trifluoromethyl)phenyl)(6-methyl-1-(1H-pyrazol-3-yl)-6,7-dihydro-1H-[1,2,3]triazolo[4,5-c]pyridin-5(4H)-yl)methanone]",0.8 % control
12,"C[C@H]1Cc2c(nnn2-c2ncc(F)cn2)CN1C(=O)c1ccc(F)c(Cl)c1Cl (single isomer, unassigned) [Example 215, (6S*)-5-[(2,3-Dichloro-4-fluorophenyl)carbonyl]-1-(5-fluoropyrimidin-2-yl)-6-methyl-4,5,6,7-tetrahydro-1H-[1,2,3]triazolo[4,5-c]pyridine]",2.7 % control
13,"C[C@@H]1c2nnn(-c3ncc(F)cn3)c2CCN1C(=O)c1cccc(C(F)(F)F)c1Cl (single isomer, unassigned) [Example 158, (R*)-(2-Chloro-3-(trifluoromethyl)phenyl)(1-(5-fluoropyrimidin-2-yl)-4-methyl-6,7-dihydro-1H-[1,2,3]triazolo[4,5-c]pyridin-5(4H)-yl)methanone]",1.1 % control
14,"C[C@@H]1c2ncn(-c3ncc(F)cn3)c2CCN1C(=O)c1cccc(C(F)(F)F)c1Cl (single isomer, unassigned) [Example 193, (R*)-(2-Chloro-3-(trifluoromethyl)phenyl)(1-(5-fluoropyrimidin-2-yl)-4-methyl-6,7-dihydro-1H-imidazo[4,5-c]pyridin-5(4H)-yl)methanone]",1.4 % control
15,"C[C@H]1c2n[nH]c(-c3ncc(F)cn3)c2CCN1C(=O)c1cccc(C(F)(F)F)c1Cl (single isomer, unassigned) [Example 224, (S*)-(2-chloro-3-(trifluoromethyl)phenyl)(3-(5-fluoropyrimidin-2-yl)-7-methyl-4,5-dihydro-2H-pyrazolo[3,4-c]pyridin-6(7H)-yl)methanone]",103.3 % control
16,"Cc1cccnc1-n1nnc2c1CCN(C(=O)c1cccc(C(F)(F)F)c1Cl)[C@@H]2C (single isomer, unassigned) [Example 291, (R*)-(2-chloro-3-(trifluoromethyl)phenyl)(4-methyl-1-(3-methylpyridin-2-yl)-6,7-dihydro-1H-[1,2,3]triazolo[4,5-c]pyridin-5(4H)-yl)methanone]",−7.1 % control
17,"CC1Cc2c(nnn2-c2ncccc2F)CN1C(=O)c1cccc(Cl)c1Cl (stereo not shown) [Example 161, (2,3-Dichlorophenyl)(1-(3-fluoropyridin-2-yl)-6-methyl-6,7-dihydro-1H-[1,2,3]triazolo[4,5-c]pyridin-5(4H)-yl)methanone]",−0.9 % control
18,"C[C@H]1c2nnn(-c3ncc(F)cn3)c2CCN1C(=O)c1ccnc(C(F)(F)F)c1Cl (single isomer, unassigned) [Example 164, (S*)-(3-chloro-2-(trifluoromethyl)pyridin-4-yl)(1-(5-fluoropyrimidin-2-yl)-4-methyl-6,7-dihydro-1H-[1,2,3]triazolo[4,5-c]pyridin-5(4H)-yl)methanone]",98.1 % control
19,"CC1c2nnn(-c3ncc(F)cn3)c2CCN1C(=O)c1cccc(C(F)(F)F)c1F (stereo not shown) [Example 175, (2-fluoro-3-(trifluoromethyl)phenyl)(1-(5-fluoropyrimidin-2-yl)-4-methyl-6,7-dihydro-1H-[1,2,3]triazolo[4,5-c]pyridin-5(4H)-yl)methanone]",4.5 % control
20,"C[C@@H]1Cc2c(nnn2-c2ccc(F)cc2)[C@@H](C)N1C(=O)c1cccc(C(F)(F)F)c1Cl [Example 284, (2-chloro-3-(trifluoromethyl)phenyl)((4R,6R)-1-(4-fluorophenyl)-4,6-dimethyl-6,7-dihydro-1H-[1,2,3]triazolo[4,5-c]pyridin-5(4H)-yl)methanone]",18.2 % control
21,"C[C@H]1Cc2c(nnn2-c2ccc(F)cc2)[C@H](C)N1C(=O)c1cccc(C(F)(F)F)c1Cl [Example 285, (2-chloro-3-(trifluoromethyl)phenyl)((4S,6S)-1-(4-fluorophenyl)-4,6-dimethyl-6,7-dihydro-1H-[1,2,3]triazolo[4,5-c]pyridin-5(4H)-yl)methanone]",−2.6 % control
